Laboratory results: patent publication US20220402980A1, “CHROMOGRANIN A-DERIVED PEPTIDES AND USES THEREOF” (OSPEDALE SAN RAFFAELE S.R.L., priority 2019, published 2022)
Read-outs that look alike come from different tables or passages of the source. Where a SMILES comes first, the peptide text is derived from it. Bridges are numbered along the chain shown (N, C = ends). Triazole bridges read from a SMILES are 1,4-linked. [ ]: non-standard residue; d: D form. Lys(N3) = [N-]=[N+]=NCCCC[C@H](N)C(=O)O; Pra = C#CC[C@H](N)C(=O)O

What was measured:
BxPC-3 cells = experiment: Binding of peptide-IRDye conjugates to cultured BxPC-3 cells; assay type: cell-based, human; conditions: BxPC-3 cells; 5a-IRDye 4 nM
Protocol: (§1) B) Binding of the indicated peptide-IRDye conjugates to the various cell lines. Various amounts of conjugates were added to cell monolayers (grown in 96-well microtiter plates) and incubated for 1 h at 37° C., 5% CO2 (see Experimental section). After washing, bound fluorescence was measured using an Odyssey CLx (LI-COR) scanner. A representative image of the scanned plate and binding quantification are reported. Mean ±SE of quadruplicate wells.
(§2) Various amounts of unlabeled peptides were mixed 5a-IRDye (4 nM) and added to the cells. After 1 h, the plates were washed, and the bound fluorescence was quantified as described above (left panels).
(§3) The binding of peptide-IRDye conjugates to BxPC-3, 5637, HUVECs, 4T1, K8484 and DT6606 cells was analyzed as follows. The cells were grown in 96-well clear-bottom black microtiterplates (Corning® cat. 3603, 2-3x10^4 cells/well, plated 48 h before the experiment). After washing twice with 0.9% sodium chloride solution, the cells were incubated with 25 mM Hepes buffer, pH 7.4, containing 150 mM sodium chloride, 1 mM magnesium chloride, 1 mM manganese chloride and 1% BSA (binding buffer) for 5 min. Peptide-IRDye conjugates (0.013-40 nM in binding buffer) were then added to the cells and left to incubate for 1 h at 37° C., 5% CO2. After three washings with binding buffer (5 min each, 200 al/well), the cells were fixed with PBS containing 2% paraformaldehyde and 3% sucrose for 15 min at room temperature. Binding of conjugates to cells was quantified by scanning the plate (filled with PBS, 100 al/well) with the Odyssey CLx (LI-COR) using the following settings: scan intensity, 8.5; scan focus offset 4; scan quality, highest; channel, 800; resolution, 169 pm. Then, the plates were incubated with 5 μg/ml of 4′,6-diamidino-2-phenylindole (DAPI) for 15 min, washed twice with PBS and read with a VICTOR3 plate reader (Perkin Elmer, Waltham, Mass., USA) to quantify the cell number in each well, using the following filters: excitation, 355±40 nm; emission, 460±25 nm (acquisition,1 s).

αvβ6 = molecular target: T1, αvβ6 (Homo sapiens, UniProt P06756+P18564); experiment: Competitive integrin binding assay (isoDGR/STV-HRP probe), αvβ6-coated plates
T1 construct: recombinant human αvβ6 extracellular domain (R&D Systems); purchased R&D Systems (Minneapolis, Minn.)
Protocol: (§4) Peptide binding was measured by a competitive binding assay using as integrin probe a complex made by a N-terminal acetylated isoDGR peptide biotinylated at the E-amino group of the lysine, acetyl-Ciso[…]-bio (SEQ ID No. 29), and a streptavidin-peroxidase conjugate (called isoDGR/STV-HRP)[43].
(§5) Each mixture was then added to integrin-coated wells and left to incubate for 2 h at room temperature. After washing with 25 mM Tris-HCl, pH 7.4, containing 150 mM sodium chloride, 1 mM magnesium chloride, 1 mM manganese chloride, each well was filled with a chromogenic solution (o-phenylenediamine dihydrochloride) and left to incubate for 30 min at room temperature. The chromogenic reaction was stopped by adding 1 N sulfuric acid. The absorbance at 490 nm was then measured using a microtiterplate reader. Ki values were calculated by non-linear regression analysis of competitive binding data using the “One site - Fit Ki” equation of the GraphPad Prism Software using the Kd values of the probe indicated above.

αvβ8 = αvβ8 (Homo sapiens, UniProt P06756+P26012); experiment: Competitive integrin binding assay (isoDGR/STV-HRP probe), αvβ8-coated plates
Protocol: as §4, §5

5637 cells = experiment: Binding of peptide-IRDye conjugates to cultured 5637 cells; assay type: cell-based, human; conditions: 5637 cells; 5a-IRDye 4 nM
Protocol: as §1, §2, §3

[1] = tested on: human bladder carcinoma 5637 cells; experiment: 5637 cell viability (PrestoBlue); assay type: cell-based; conditions: 48 h
Protocol: FIG. 12. Effect of peptides 4 and 5 on human bladder carcinoma 5637 cell viability. 5637 cells were seeded in a 96-well microtiterplate (20,000 cell/well) and cultured for 16 h at 37° C., 5% CO2. The day after the indicated doses of peptide 4 and 5 were added to the cells and left to incubate for additionally 48 h at 37° C., 5% CO2. Cell viability was assessed using the PrestoBlue* cell viability reagent (ThermoFisher) according to the manufacturer's instructions. Viability of the treated cells was normalized to that of untreated cells and is reported as a percentage (mean±SE of triplicate wells).

[2] = Peptide stability in mouse liver microsomal preparations (RP-HPLC); assay type: in vitro ADME; conditions: C57BL/6, mouse, liver microsomes; 37° C.; read-out: t1/2 in mouse liver microsomes (converted)
Protocol: FIG. 14. Stability of peptides 4 and 5 in murine liver microsomes as determined by RP-HPLC. a) RP-HPLC of 4 and 5 after incubation at 37° C. in murine liver microsomes. Peak 1 corresponds to 4 and 5. The peptides were added to murine liver microsomes (454 - μg/ml, final concentration) and incubated for the indicated time, diluted with an equal volume of 90% acetonitrile containing 0.1% TFA and analyzed onto a LiChrospher C18 column (16 ag). No peptide indicates liver microsome aliquot without the peptide. b) Quantification of Peak 1 area (left panel) and height (right panel) of the indicated peptides. The corresponding half-life is also shown.
The stability of compound 4 and 5 in mouse liver microsomal preparations was assessed by HPLC analysis. To this aim microsomes were prepared as follows: 11 g of mouse liver tissue (C57BL/6 mice) was homogenized in cold PBS supplemented with 0.25 M sucrose (3 ml/g of tissue) using a Potter-Elvehjem homogenizer (10 strokes), followed by additional homogenization using a rotor-stator homogenizer (40 sec). The homogenate was filtered through 70 pm cell-strainers, centrifuged three times to remove insoluble materials (500 x g, 5 min; 3000 x g, 30 min; 110000 x g, 90 min, 4° C.). […] Protein concentration was measured by measuring the absorbance at 280 nm with a NanoDrop spectrophotometer (Thermo Scientific). […]

in vivo = conditions: mouse, iv, 3 MBq/animal, total radioactivity

## CC[C@H](C)[C@H](NC(=O)[C@H](CCCNC(=N)N)NC(=O)[C@H](CCC(=O)O)NC(=O)[C@H](CCC(=O)O)NC(=O)CNC(=O)[C@H](CCCNC(=N)N)NC(=O)[C@H](CC(C)C)NC(=O)[C@@H](NC(=O)[C@H](CCC(=O)O)NC(=O)[C@H](Cc1ccccc1)NC(=O)[C@@H](N)CS)[C@@H](C)O)C(=O)N[C@@H](CC(C)C)C(=O)N[C@@H](CO)C(=O)N[C@H](C(=O)N[C@@H](CC(C)C)C(=O)N[C@@H](CCCNC(=N)N)C(=O)N[C@@H](Cc1c[nH]cn1)C(=O)N[C@@H](CCC(N)=O)C(=O)N[C@@H](CC(N)=O)C(=O)N[C@@H](CC(C)C)C(=O)N[C@@H](CC(C)C)C(=O)N[C@@H](CCCCN)C(=O)N[C@@H](CCC(=O)O)C(=O)N[C@@H](CC(C)C)C(=O)N[C@@H](CCC(N)=O)C(=O)N[C@@H](CC(=O)O)C(=O)O)[C@@H](C)CC [peptide 2a, reference compound] (H-CFETLRGEERILSILRHQNLLKELQD-OH; N-terminus and C-terminus assumed)
BxPC-3 cells
  inhibition of 5a-IRDye binding by excess of free peptide: not
αvβ6; Table 3b, mean ± SE, read-out: Binding affinity for αvβ6 Ki
  Ki: > 50000 nM
αvβ8; Table 3b, mean ± SE, read-out: Binding affinity for αvβ8 Ki
  Ki: > 50000 nM
5637 cells
  inhibition of 5a-IRDye binding by excess of free peptide: not

## CC[C@H](C)[C@H](NC(=O)[C@H](CCCNC(=N)N)NC(=O)[C@H](CC(C)C)NC(=O)[C@H](CC(=O)O)NC(=O)CNC(=O)[C@H](CCCNC(=N)N)NC(=O)[C@H](CC(C)C)NC(=O)[C@@H](NC(=O)[C@H](CCC(=O)O)NC(=O)[C@H](Cc1ccccc1)NC(=O)[C@@H](N)CS)[C@@H](C)O)C(=O)N[C@@H](CC(C)C)C(=O)N[C@@H](CO)C(=O)N[C@H](C(=O)N[C@@H](CC(C)C)C(=O)N[C@@H](CCCNC(=N)N)C(=O)N[C@H]1Cc2cn(nn2)CCCC[C@@H](C(=O)N[C@@H](CCCCN)C(=O)N[C@@H](CCC(=O)O)C(=O)N[C@@H](CC(C)C)C(=O)N[C@@H](CCC(N)=O)C(=O)N[C@@H](CC(=O)O)C(N)=O)NC(=O)[C@H](CC(C)C)NC(=O)[C@H](CC(N)=O)NC(=O)[C@H](CCC(N)=O)NC1=O)[C@@H](C)CC [peptide 5a, CFETLRGDLRILSILRX1QNLX2KELQD]
BxPC-3 cells
  inhibition of 5a-IRDye binding by excess of free peptide: significantly inhibited
5637 cells
  inhibition of 5a-IRDye binding by excess of free peptide: significantly inhibited

## CC[C@H](C)[C@H](NC(=O)[C@H](CCCNC(=N)N)NC(=O)[C@H](CC(C)C)NC(=O)[C@H](CC(=O)O)NC(=O)CNC(=O)[C@H](CCCNC(=N)N)NC(=O)[C@H](CC(C)C)NC(=O)[C@@H](NC(=O)[C@H](CCC(=O)O)NC(=O)[C@H](Cc1ccccc1)NC(C)=O)[C@@H](C)O)C(=O)N[C@@H](CC(C)C)C(=O)N[C@@H](CO)C(=O)N[C@H](C(=O)N[C@@H](CC(C)C)C(=O)N[C@@H](CCCNC(=N)N)C(=O)N[C@H]1Cc2cn(nn2)CCCC[C@@H](C(=O)N[C@@H](CCCCN)C(=O)N[C@@H](CCC(=O)O)C(=O)N[C@@H](CC(C)C)C(=O)N[C@@H](CCC(N)=O)C(=O)N[C@@H](CC(=O)O)C(N)=O)NC(=O)[C@H](CC(C)C)NC(=O)[C@H](CC(N)=O)NC(=O)[C@H](CCC(N)=O)NC1=O)[C@@H](C)CC [peptide 5, FETLRGDLRILSILRX1QNLX2KELQD] (Ac-FETLRGDLRILSILR[Pra]QNL[Lys(N3)]KELQD-NH2; triazole 16-20)
[1]
  cytotoxicity in vitro: not cytotoxic
[2]
  half-life at 454 μg/ml: 4.3 h
αvβ6; Table 3a and text, ± standard error of the mean, read-out: Ki αvβ6
  Ki: 0.6 ± 0.1 nM
αvβ8; Table 3a and text, ± standard error of the mean, read-out: Ki αvβ8
  Ki: 3.2 ± 1.2 nM

## CC[C@H](C)[C@H](NC(=O)[C@H](CCCNC(=N)N)NC(=O)[C@H](CC(C)C)NC(=O)[C@H](CC(=O)O)NC(=O)CNC(=O)[C@H](CCCNC(=N)N)NC(=O)[C@H](CC(C)C)NC(=O)[C@@H](NC(=O)[C@H](CCC(=O)O)NC(=O)[C@H](Cc1ccccc1)NC(=O)[C@@H](N)CSC1CC(=O)N(CCNC(=O)CN2CCN(CC(=O)O)CCN(CC(=O)O)CC2)C1=O)[C@@H](C)O)C(=O)N[C@@H](CC(C)C)C(=O)N[C@@H](CO)C(=O)N[C@H](C(=O)N[C@@H](CC(C)C)C(=O)N[C@@H](CCCNC(=N)N)C(=O)N[C@H]1Cc2cn(nn2)CCCC[C@@H](C(=O)N[C@@H](CCCCN)C(=O)N[C@@H](CCC(=O)O)C(=O)N[C@@H](CC(C)C)C(=O)N[C@@H](CCC(N)=O)C(=O)N[C@@H](CC(=O)O)C(N)=O)NC(=O)[C@H](CC(C)C)NC(=O)[C@H](CC(N)=O)NC(=O)[C@H](CCC(N)=O)NC1=O)[C@@H](C)CC (some centres unmarked) [1^8F-NOTA-5a]
In vivo; accumulation in intestine, femur, liver and stomach
  tissue uptake at 2 h: ~2 %ID/g
In vivo; accumulation in the lungs
  tissue uptake at 2 h: 1.2 %ID/g
In vivo; radiotracer levels in the kidneys
  tissue uptake at 2 h: ~80 %ID/g
In vivo; uptake in brain, heart, spleen, blood, muscle
  tissue uptake at 2 h: < 0.5 %ID/g
